Reference: article PMC7587356, “High-Throughput Screening for Inhibitors of the SARS-CoV-2 Protease Using a FRET-Biosensor” (Molecules, 2020)
Counter-ions that a name gives are not always drawn. Like-named read-outs stand apart in the source and are kept apart here.

Biological target: SARS-CoV-2 3CLpro (Severe acute respiratory syndrome coronavirus 2, UniProt P0DTD1)
Assay: biochemical
Assay type: biochemical
Parameters: Replicate_1 / Replicate_2 / mean / mean (LOPAC_screen_w_protease): unit not given here
Details: for inhibition at 5 µM: 4 h
[1] = LOPAC1280 primary screen with protease, 5 µM compound, replicate 1, read-out: Replicate_1 (LOPAC_screen_w_protease)
[2] = LOPAC1280 primary screen with protease, 5 µM compound, replicate 2, read-out: Replicate_2 (LOPAC_screen_w_protease)
[3] = LOPAC1280 primary screen with protease, 5 µM compound, mean of two replicates
[4] = sheet LOPAC_screen_w_protease, LOPAC1280 at 5 µM, mean of two replicates
[5] = sheet LOPAC_screen_w_protease, LOPAC1280 at 5 µM, replicate 1
[6] = sheet LOPAC_screen_w_protease, LOPAC1280 at 5 µM, replicate 2
[7] = sheet LOPAC_screen_w_protease, LOPAC1280 primary screen at 5 µM, with protease, mean of the two replicates
[8] = sheet LOPAC_screen_w_protease, LOPAC1280 primary screen at 5 µM, with protease, replicate 1
[9] = sheet LOPAC_screen_w_protease, LOPAC1280 primary screen at 5 µM, with protease, replicate 2
[10] = read-out: Replicate_1 (LOPAC_screen_w_protease)
[11] = read-out: Replicate_2 (LOPAC_screen_w_protease)
[12] = LOPAC1280 primary screen with protease, 5 µM compound, mean of the two replicates
[13] = LOPAC1280 primary screen with protease, 5 µM compound, replicate 1
[14] = LOPAC1280 primary screen with protease, 5 µM compound, replicate 2
[15] = sheet LOPAC_screen_w_protease, primary screen with protease, mean of two replicates
[16] = sheet LOPAC_screen_w_protease, primary screen with protease, replicate 1
[17] = sheet LOPAC_screen_w_protease, primary screen with protease, replicate 2
[18] = sheet LOPAC_screen_w_protease, primary screen of LOPAC1280 at 5 µM with protease, mean of the two replicates, read-out: mean
[19] = sheet LOPAC_screen_w_protease, primary screen of LOPAC1280 at 5 µM with protease, replicate 1, read-out: Replicate_1
[20] = sheet LOPAC_screen_w_protease, primary screen of LOPAC1280 at 5 µM with protease, replicate 2, read-out: Replicate_2
[21] = sheet LOPAC_screen_w_protease, primary screen with protease, 5 µM, mean of two replicates
[22] = sheet LOPAC_screen_w_protease, primary screen with protease, 5 µM, replicate 1
[23] = sheet LOPAC_screen_w_protease, primary screen with protease, 5 µM, replicate 2
[24] = sheet LOPAC_screen_w_protease, LOPAC1280 primary screen with protease, 5 µM compound, mean of the two replicates
[25] = sheet LOPAC_screen_w_protease, LOPAC1280 primary screen with protease, 5 µM compound, replicate 1
[26] = sheet LOPAC_screen_w_protease, LOPAC1280 primary screen with protease, 5 µM compound, replicate 2

With `CN(C)CCC=C1c2ccccc2COc2ccccc21` [Doxepin hydrochloride] the inhibition at 5 µM [1] was 1.2%, the inhibition at 5 µM [2] was 1.88% and the “mean (LOPAC_screen_w_protease)” value [3] was 1.543.

For `CN(C)C(N)=NCCC[C@H](N)C(=O)O.Cl` [N^G,N^G-Dimethylarginine hydrochloride], the mean [4] was 0.9307, the Replicate_1 [5] was 2.142 and the Replicate_2 [6] was -0.2808.

`COC1=C(OC)C(=O)c2ccccc2C1=O` [2,3-Dimethoxy-1,4-naphthoquinone] was tested, and the mean [7] was 0.8524, the Replicate_1 [8] was 0.1505 and the Replicate_2 [9] was 1.554.

`O=C(O)Cc1ccccc1Nc1c(Cl)cccc1Cl` [Diclofenac sodium] was tested, and the “mean (LOPAC_screen_w_protease)” value was 1.426, the inhibition at 5 µM [10] was 3.59% and the inhibition at 5 µM [11] was -0.743%.

`COc1cc(CC(C)N)c(OC)cc1I.Cl` (racemic) [(±)-DOI hydrochloride] was tested, and the Replicate_1 was 4.323, the Replicate_2 was 2.796 and the mean was 3.56.

In the case of `CC(C)(C)NCC(O)c1ccc(O)c(CO)c1.CC(C)(C)NCC(O)c1ccc(O)c(CO)c1.O=S(=O)(O)O` (centres unmarked) [Albuterol hemisulfate], the “mean (LOPAC_screen_w_protease)” value [12] is reported as 2.078, the “Replicate_1 (LOPAC_screen_w_protease)” value [13] is reported as 2.563 and the “Replicate_2 (LOPAC_screen_w_protease)” value [14] is reported as 1.593.

`CC(=O)N[C@@H](Cc1c[nH]c2ccccc12)C(=O)OCc1cc(C(F)(F)F)cc(C(F)(F)F)c1` [L-732,138] gave a mean [15] of 2.284, a Replicate_1 [16] of 2.97 and a Replicate_2 [17] of 1.597.

In the case of `NCC1(CC(=O)O)CCCCC1` [Gabapentin], the “mean (LOPAC_screen_w_protease)” value is reported as 1.9821, the inhibition at 5 µM [10] is reported as 3.94% and the inhibition at 5 µM [11] is reported as 0.0248%.

`Nc1nc(N)c2nc(CNc3ccc(C(=O)N[C@@H](CCC(=O)O)C(=O)O)cc3)cnc2n1` [Aminopterin] was tested, and the inhibition at 5 µM [1] was 2.12%, the inhibition at 5 µM [2] was 1.52% and the “mean (LOPAC_screen_w_protease)” value [12] was 1.819.

Work on `Cc1cn(C2CC(N=[N+]=[N-])C(CO)O2)c(=O)[nH]c1=O` (centres unmarked) [3'-Azido-3'-deoxythymidine] yielded an inhibition at 5 µM (sheet LOPAC_screen_w_protease, LOPAC1280 at 5 µM, mean of two replicates, read-out: mean) of 1.04%, an inhibition at 5 µM (sheet LOPAC_screen_w_protease, LOPAC1280 at 5 µM, replicate 1, read-out: Replicate_1) of 1.75% and an inhibition at 5 µM (sheet LOPAC_screen_w_protease, LOPAC1280 at 5 µM, replicate 2, read-out: Replicate_2) of 0.327%.

`CN[C@H](CC(=O)O)C(=O)O` [N-Methyl-D-aspartic acid] gave an inhibition at 5 µM [18] of 3.42%, an inhibition at 5 µM [19] of 4.04% and an inhibition at 5 µM [20] of 2.81%.

`CCN(CC)CCCC(C)Nc1ccnc2cc(Cl)ccc12` (centres unmarked) [Chloroquine diphosphate] was tested, and the inhibition at 5 µM (read-out: Replicate_1) was 2.19%, the inhibition at 5 µM (read-out: Replicate_2) was 3.74% and the inhibition at 5 µM (read-out: mean) was 2.97%.

For `O=c1c(-c2ccc(O)cc2)coc2cc(O)ccc12` [Daidzein], the inhibition at 5 µM (read-out: Replicate_1) was 5.3%, the inhibition at 5 µM (read-out: Replicate_2) was 1.03% and the inhibition at 5 µM (read-out: mean) was 3.16%.

For `CC(C)=CCC/C(C)=C/CC/C(C)=C/CSc1ccccc1C(=O)O` [Farnesylthiosalicylic acid], the mean [21] was 0.3894, the Replicate_1 [22] was 1.928 and the Replicate_2 [23] was -1.149.

In the case of `N[C@@H](Cc1ccc(F)cc1)C(=O)O` [p-Fluoro-L-phenylalanine], the “mean (LOPAC_screen_w_protease)” value [12] is reported as 2.051, the “Replicate_1 (LOPAC_screen_w_protease)” value [13] is reported as 4.147 and the “Replicate_2 (LOPAC_screen_w_protease)” value [14] is reported as -0.04537.

`OC(CN1CCN(c2cccc(Cl)c2)CC1)C(c1ccccc1)c1ccccc1` (centres unmarked) [BRL 15572] was tested, and the “mean (LOPAC_screen_w_protease)” value [12] was 1.912, the “Replicate_1 (LOPAC_screen_w_protease)” value [13] was 0.6201 and the “Replicate_2 (LOPAC_screen_w_protease)” value [14] was 3.204.

`N[C@@H](Cn1oc(=O)[nH]c1=O)C(=O)O` [(+)-Quisqualic acid] showed a mean [7] of 0.4364, a Replicate_1 [8] of 1.4914 and a Replicate_2 [9] of -0.6187.

Compound `CC(=O)c1ccc(S(=O)(=O)NC(=O)NC2CCCCC2)cc1` [Acetohexamide] has an inhibition at 5 µM [18] of 3.3%, an inhibition at 5 µM [19] of 2.5% and an inhibition at 5 µM [20] of 4.1%.

`CN1C[C@H](O)[C@@H](O)[C@H](O)[C@H]1CO` [N-Methyl-1-deoxynojirimycin] showed a mean [24] of 4.2727, a Replicate_1 [25] of 3.9484 and a Replicate_2 [26] of 4.597.

`CC(CN1c2ccccc2Sc2ccccc21)N(C)C` (centres unmarked) [Promethazine hydrochloride] was tested, and the inhibition at 5 µM [18] was 3.55%, the inhibition at 5 µM [19] was 1.74% and the inhibition at 5 µM [20] was 5.35%.

Compound `CNCCc1c[nH]c2ccc(O)cc12.O=C(O)C(=O)O` has a mean [24] of 5.527, a Replicate_1 [25] of 5.7 and a Replicate_2 [26] of 5.354.

`CCCCCC(O)c1cccc(OCc2ccc3ccccc3n2)c1` (centres unmarked) [REV 5901] showed an inhibition at 5 µM (sheet LOPAC_screen_w_protease, primary screen with protease, 5 µM, mean of two replicates, read-out: mean) of 0.337%, an inhibition at 5 µM (sheet LOPAC_screen_w_protease, primary screen with protease, 5 µM, replicate 1, read-out: Replicate_1) of 0.269% and an inhibition at 5 µM (sheet LOPAC_screen_w_protease, primary screen with protease, 5 µM, replicate 2, read-out: Replicate_2) of 0.406%.

`Cl.NCCS` [Cysteamine hydrochloride] was tested, and the “mean (LOPAC screen with protease)” value (sheet LOPAC_screen_w_protease, primary screen at 5 µM, mean of two replicates) was 8.502, the “Replicate_1 (LOPAC screen with protease)” value (sheet LOPAC_screen_w_protease, primary screen at 5 µM, replicate 1) was 9.009 and the “Replicate_2 (LOPAC screen with protease)” value (sheet LOPAC_screen_w_protease, primary screen at 5 µM, replicate 2) was 7.996.

For `Oc1cc(-c2ccccc2)nc2nc(Cl)ccc12`, the “mean (LOPAC_screen_w_protease)” value [12] was 1.995, the “Replicate_1 (LOPAC_screen_w_protease)” value [13] was 0.8933 and the “Replicate_2 (LOPAC_screen_w_protease)” value [14] was 3.097.

Compound `C[C@]12CCC(=O)C(O)=C1CC[C@@H]1[C@@H]2CC[C@]2(C)C(=O)CC[C@@H]12` [4-Androsten-4-ol-3,17-dione] has a mean [21] of 0.2033, a Replicate_1 [22] of 1.5144 and a Replicate_2 [23] of -1.108.

In the case of `c1ccc2c(c1)[I+]c1ccccc1-2` [Diphenyleneiodonium chloride], the inhibition at 5 µM (read-out: Replicate_1) is reported as 3.49%, the inhibition at 5 µM (read-out: Replicate_2) is reported as 2.49% and the inhibition at 5 µM (read-out: mean) is reported as 2.99%.

In the case of `CCS(=O)(=O)Nc1cccc(C(=C2CCCCC2)c2c[nH]cn2)c1` [A-315456], the mean [7] is reported as 0.823, the Replicate_1 [8] is reported as 1.277 and the Replicate_2 [9] is reported as 0.3687.

For `CC(C)NCC(O)c1ccc(O)c(O)c1.Cl` (racemic) [(±)-Isoproterenol hydrochloride], the Replicate_1 (sheet LOPAC_screen_w_protease, primary screen with protease, compound at 5 µM, replicate 1) was 3.707 and the Replicate_2 (sheet LOPAC_screen_w_protease, primary screen with protease, compound at 5 µM, replicate 2) was 1.7371.

With `CC(=O)C(C)=NO` [2,3-Butanedione monoxime] the “mean (LOPAC_screen_w_protease)” value [3] was 1.644, the “Replicate_1 (LOPAC_screen_w_protease)” value [13] was 1.791 and the “Replicate_2 (LOPAC_screen_w_protease)” value [14] was 1.497.

`Cn1cc(C(=O)OCC2CCN(CCNS(C)(=O)=O)CC2)c2ccccc21` [GR 113808] gave a mean [4] of 1.128, a Replicate_1 [5] of 1.417 and a Replicate_2 [6] of 0.838.

Compound `NC(=O)COc1c(F)cc(SCCNS(=O)(=O)c2ccccc2)cc1F` has a mean (sheet LOPAC_screen_w_protease, LOPAC1280 primary screen at 5 µM, with protease, mean of two replicates) of -1.413, a Replicate_1 [8] of -1.082 and a Replicate_2 [9] of -1.744.

In the case of `Cl.Nc1ccn([C@@H]2O[C@H](CO)[C@@H](O)[C@@H]2O)c(=O)n1`, the mean [15] is reported as 2.239, the Replicate_1 [16] is reported as 1.947 and the Replicate_2 [17] is reported as 2.5319.

With `CCCCCCCCCCCCCCC[C@H](O)[C@H](N)CO` (racemic) [DL-erythro-Dihydrosphingosine] the “mean (LOPAC_screen_w_protease)” value [3] was 1.428, the “Replicate_1 (LOPAC_screen_w_protease)” value [13] was 4.536 and the “Replicate_2 (LOPAC_screen_w_protease)” value [14] was -1.681.

`Cl.NCCc1ccc(S(=O)(=O)F)cc1` gave a mean [7] of 0.6027, a Replicate_1 [8] of 1.03 and a Replicate_2 [9] of 0.1751.

`CCCCC/C=C\C/C=C\C/C=C\C/C=C\CCCC(=O)NCC(=O)O` [N-arachidonylglycine] was tested, and the mean [21] was 0.3785, the Replicate_1 [22] was 1.728 and the Replicate_2 [23] was -0.9708.

In the case of `CC(=O)O[C@H]1C[C@@]2(C)[C@@H](C[C@@H](O)[C@H]3[C@@]4(C)CC[C@@H](O)[C@@H](C)[C@@H]4CC[C@@]32C)/C1=C(\CCC=C(C)C)C(=O)[O-].[Na+]` [Fusidic acid sodium], the mean [15] is reported as 2.25, the Replicate_1 [16] is reported as 4.338 and the Replicate_2 [17] is reported as 0.1614.

`Cl.NCCNC(=O)c1ncsc1-c1cccc(F)c1` [Ro 41-1049 hydrochloride] gave a mean [21] of -0.1611, a Replicate_1 [22] of 1.896 and a Replicate_2 [23] of -2.218.

Work on `O=c1c2ccccc2[se]n1-c1ccccc1` [Ebselen, reference compound] yielded an inhibition at 5 µM (read-out: Replicate_1 (LOPAC screen with protease)) of 105%, an inhibition at 5 µM (read-out: Replicate_2 (LOPAC screen with protease)) of 102% and an inhibition at 5 µM (read-out: mean (LOPAC screen with protease)) of 103%.

In the case of `Cl.NC(N)=NCCNS(=O)(=O)c1cccc2cnccc12` [HA-1004 hydrochloride], the “mean (LOPAC_screen_w_protease)” value [3] is reported as 1.6, the “Replicate_1 (LOPAC_screen_w_protease)” value [13] is reported as 0.9796 and the “Replicate_2 (LOPAC_screen_w_protease)” value [14] is reported as 2.221.
